The text below walks through data of article PMC4077652, “An Unstable Th Epitope of P. falciparum Fosters Central Memory T Cells and Anti-CS Antibody Responses” (PLoS ONE, 2014).

What is called IC50 is the concentration needed to halve the response being measured.

Read-outs that look alike come from different tables or passages of the source. Where no end group is shown, it is not given here.

In assay [1] the target is T1, HLA-DRβ1*04:01 (DR4) (Homo sapiens, UniProt P01903+P01911, A100K/A169T/F76Y/I96L/K127E/L162R/M171V/N62H/P40V/Q125Y/R42H/S133A/S149N/S66Y/V115G/V209L/W38E). Description: biochemical. In kind it is binding.
Assay [2] concerns the target T1, HLA-DRβ1*04:01 (DR4). Description: biochemical. Format: binding. The source holds these as a separate data set.
Assay [3] has as its target HLA-DR4 (Homo sapiens, UniProt P01903+P01911, A100K/A169T/F76Y/I96L/K127E/L162R/M171V/N62H/P40V/Q125Y/R42H/S133A/S149N/S66Y/V115G/V209L/W38E). As to conditions: binding to HLA-DR4, previously reported; read-out: IC50, competition binding assay; cited from earlier work.
The mark [4] stands for this setting: IC50, competition binding assay.

The compound `CC(C)[C@H](NC(=O)[C@H](CC(N)=O)NC(=O)[C@@H]1CCCN1C(=O)[C@H](CC(N)=O)NC(=O)[C@H](C)NC(=O)[C@H](CC(N)=O)NC(=O)[C@@H]1CCCN1C(=O)[C@H](CC(=O)O)NC(=O)[C@@H](NC(=O)[C@H](CC(N)=O)NC(=O)[C@@H]1CCCN1C(=O)[C@H](CC(N)=O)NC(=O)[C@H](C)NC(=O)[C@H](CC(N)=O)NC(=O)[C@@H]1CCCN1C(=O)[C@@H](N)CC(=O)O)C(C)C)C(=O)O` [T1, reference compound] registered an IC50 in assay [1] (IC50, binding to DRβ1*04:01) of about 18 µM. Ac-ANSLSTEWSPCSVT-NH2 [Q332A] registered an IC50 in assay [1] of 1.19 µM.

The compound Ac-LSTEWSPCS-NH2 [QN-335-343] displayed an IC50 in assay [1] of 75.8 µM. On the same count and under the same terms, the result for Ac-QASLSTEWSPCSVT-NH2 [N333A] reads 2.65 µM; that for Ac-QNALSTEWSPCSVT-NH2 [S334A], 1.14 µM; that for Ac-QNSASTEWSPCSVT-NH2 [L335A], 68.4 µM. For Ac-QNSLATEWSPCSVT-NH2 [S336A], in assay [1], the concentration for half-maximal inhibition (IC50) was 0.91 µM. The same measure, in the same setting: the same measure for Ac-QNSLSAEWSPCSVT-NH2 [T337A]: 1.3 µM. Still for that read-out and setting: the same measure for Ac-QNSLSTAWSPCSVT-NH2 [E338A]: 3.4 µM. Same read-out and setting: the result for Ac-QNSLSTEASPCSVT-NH2 [W339A] reads 1.42 µM; that for Ac-QNSLSTEWAPCSVT-NH2 [S340A], 24.6 µM; that for Ac-QNSLSTEWSACSVT-NH2 [P341A], 7.75 µM. For the compound Ac-QNSLSTEWSPASVT-NH2 [C342A], the IC50 in assay [1] is 0.73 µM. On to Ac-QNSLSTEWSPCAVT-NH2 [S343A], for which, in assay [1], the 50% inhibitory concentration (IC50) came to 0.7 µM.

Ac-QNSLSTEWSPCS-NH2 [QN-332-343] came in with an IC50 in assay [1] of 5.58 µM. On the same count and under the same terms, the same measure for Ac-QNSLSTEWSPCSAT-NH2 [V344A]: 0.44 µM; for Ac-QNSLSTEWSPCSVA-NH2 [T345A]: 0.71 µM. Ac-SLSTEWSPCSVT-NH2 [QN-334-345]: in assay [1], the IC50 is 2.82 µM. On the same count and under the same terms, the same measure for Ac-STEWSPCS-NH2 [QN-336-343]: 6740 µM. As to QNSLSTEWSPCSVT [QNT-5], the Kd in assay [2] (apparent equilibrium binding affinity, […], DR-ELISA, read-out: Kd (nM) DM+) came to 714.1 ± 3.9 nM; in assay [2] (apparent equilibrium binding affinity, […], DR-ELISA, read-out: Kd (nM) DM-), 504 ± 86.2 nM. In addition, the IC50 is about 0.025 µM in assay [1] (IC50 (quoted from Table 2)), about 1.7 µM in assay [1] (setting [4]) and 1.53 to 1.85 µM in assay [1] (IC50 range values (95% C.I.)).

For the compound QNSYSTEWSPCSVT [QNT-Y], the Kd is 35.7 ± 20.5 nM in assay [2] (Kd (nM) DM+) and 25.5 ± 10.7 nM in assay [2] (Kd (nM) DM-). The IC50 was about 0.5 µM in assay [1] (IC50 (quoted from Table 2)), about 0.13 µM in assay [1] (setting [4]) and 0.124 to 0.14 µM in assay [1] (IC50 range values (95% C.I.)). For the compound SLSTEWSPCSV [T*-5], the IC50 in assay [3] is 0.9 µM.
